Results published in PubChem BioAssay (NCI).
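These data come from cells grown in 96-well plates and exposed to compound for 48 hours at five concentrations. GI50: concentration for 50% inhibition of growth. At the TGI there is no net growth.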

How the values were obtained:
Assay in all cases: NCI-60 cell line screen, 48 h
OVCAR-8 ovarian = system: OVCAR-8 ovarian
TK-10 renal = system: TK-10 renal
SW-620 colon = system: SW-620 colon
RXF 393 renal = system: RXF 393 renal
RPMI-8226 leukemia = system: RPMI-8226 leukemia
SK-MEL-5 melanoma = system: SK-MEL-5 melanoma
OVCAR-4 ovarian = system: OVCAR-4 ovarian
BT-549 breast = system: BT-549 breast
HCC-2998 colon = system: HCC-2998 colon
SK-MEL-2 melanoma = system: SK-MEL-2 melanoma

SMILES | GI50 (OVCAR-8 ovarian) [µM] | TGI (OVCAR-8 ovarian) [µM] | GI50 (TK-10 renal) [µM] | TGI (TK-10 renal) [µM] | GI50 (SW-620 colon) [µM] | TGI (SW-620 colon) [µM] | GI50 (RXF 393 renal) [µM] | TGI (RXF 393 renal) [µM] | GI50 (RPMI-8226 leukemia) [µM] | TGI (RPMI-8226 leukemia) [µM] | GI50 (SK-MEL-5 melanoma) [µM] | TGI (SK-MEL-5 melanoma) [µM] | GI50 (OVCAR-4 ovarian) [µM] | TGI (OVCAR-4 ovarian) [µM] | GI50 (BT-549 breast) [µM] | TGI (BT-549 breast) [µM] | GI50 (HCC-2998 colon) [µM] | TGI (HCC-2998 colon) [µM] | GI50 (SK-MEL-2 melanoma) [µM] | TGI (SK-MEL-2 melanoma) [µM]
C[As](C)Sc1ccnc(S[As](C)C)n1 | 5.51 | > 40.1 | 2.64 | 14.3 | 1.4 | 19.5 | 3.2 | 20.1 | 1.12 | 4.61 | 2.3 | 10.7 | 3.44 | 36.3 | 3.78 | 18.2 | 3.02 | 10.5 |  | 
Cc1cc(Cl)ccc1NC(=O)/C(Cl)=C(/Cl)C(=O)O |  | 34.2 |  | 33.2 |  | 48.9 |  | 36.3 |  | 70.5 |  | > 100 |  |  |  | 41.7 |  | 39.3 |  | 
COc1ccc(Nc2c3c4c(cccc4[nH]c2=O)C(=O)c2ccccc2-3)cc1 | 0.0367 | > 100 | < 0.0225 | 21.3 | < 0.0203 | > 100 | 0.0472 | > 100 |  |  | < 0.0172 | 0.0451 | 0.971 | > 100 | 0.0268 | 0.0708 | 0.0221 | 0.0482 | 0.048 | > 100
COc1ccc(S(=O)(=O)N2CCN(C(=O)OCc3ccccc3)CC2C(=O)NO)cc1 (centres undefined) | > 25 | > 25 | 10.9 | > 25 | > 25 | > 25 | > 25 | > 25 |  |  | > 25 | > 25 | > 25 | > 25 | > 25 | > 25 | > 25 | > 25 | > 25 | > 25
CN(C)CCCNC(=O)c1cc(NC(=O)CCNC(=O)c2ccc3c(c2)C(=O)c2ccccc2C3=O)cn1C | > 100 | > 100 | > 100 | > 100 | > 100 | > 100 | > 100 | > 100 | 48 | > 100 | > 100 | > 100 |  |  | > 100 | > 100 | 52.7 | > 100 | > 100 | > 100
COc1ccc2c(CC(=O)O)cc(=O)oc2c1 |  | > 100 |  | > 100 |  | > 100 |  | > 100 |  | > 100 |  | > 100 |  | > 100 |  | > 100 |  | > 100 |  | 
O=C(/C=C/c1ccccn1)c1ccccc1O | 3.34 | 12.2 | 2.28 | 4.95 | 1.92 | 4.02 | 1.75 | 3.25 |  |  | 3.95 | 14.1 | 2.98 | 8.84 | 2.98 | 9.71 | 1.7 | 3.07 | 2.31 | 4.88
COC1OCC(OS(=O)(=O)c2ccc(C)cc2)C(OC(=O)c2ccccc2)C1OC(=O)c1ccccc1 (centres undefined) | > 100 | > 100 | > 100 | > 100 | 3.08 | > 100 | 4.62 | > 100 |  |  | 4.32 | > 100 | 9.24 | > 100 | > 100 | > 100 | > 100 | > 100 | 5.72 | > 100
COc1c(OC(C)=O)c(OC(C)=O)cc2c1-c1ccc(OC)c(=O)cc1C(NC(C)=O)CC2 (centres undefined) |  | > 70.1 |  | > 100 |  | > 100 |  |  |  | > 100 |  | 0.0264 |  | > 100 |  | > 100 |  | 24.8 |  | 9.38
O=C(CCc1nnc(-c2c(Cl)cccc2Cl)o1)c1nc2ccccc2[nH]1 | 9.26 | > 100 | 16.4 | > 100 | 3.46 | 16.3 | 4.3 | 49.7 | 3.61 | 23.3 | 2.88 | 14.9 | 5.93 | > 100 | 7.54 | 92.4 | 6.52 | 32.3 |  | 
CCCCCCCCCCCCOC1C(CNC(=O)C2OC3OC(C)(C)OC3C2NC(=O)CN2CCN(c3ccccn3)CC2)OC2OC(C)(C)OC21 (centres undefined) | 1.62 | 3.15 | 1.76 | 3.27 | 1.69 | 3.18 | 1.36 | 2.74 |  |  | 1.7 | 3.09 | 2.52 | 7.7 | 1.83 | 3.39 | 6.18 | 19.7 | 1.65 | 3.32
CCOc1cc(C=O)c2c(ccc3ccc(OC)c(OC)c32)c1OC |  | > 100 |  | > 100 |  |  |  | > 100 |  | > 100 |  | > 100 |  | > 100 |  | > 100 |  | > 100 |  | > 100
